The data set is described as follows: Log of liquid dish neat product liquid-air partition coefficient. Format: physicochemical. The note with it: for Log of liquid dish neat product liquid-air partition coefficient (Comment Code K/L): code letter within the Comment Code cell; for Log of liquid dish neat product liquid-air partition coefficient (Comment Code): code letters K/L of the Comment Code.

For `C=CCCCCCCCCO` [Material 470], the “Log of liquid dish neat product liquid-air partition coefficient (Comment Code K/L)” value (shortened to “Log … (Comment Code K/L)”) is “K (Log of liquid dish neat product liquid-air partition coefficient greater than or equal to 7)”.
With `CCCCCCCCCCOC(=O)CC` [Material 471], the “Log … (Comment Code K/L)” value is recorded as “K (Log of liquid dish neat product liquid-air partition coefficient greater than or equal to 7)”.
The same measure, in the same setting: with `CCCCCCCCCC(OCC)OCC` [Material 473] the entry was “K (Log of liquid dish neat product liquid-air partition coefficient greater than or equal to 7)”.
The same measure, in the same setting: then `OC1CCC2CCCCC2C1` (stereo not shown) [Material 474], with “K (Log of liquid dish neat product liquid-air partition coefficient greater than or equal to 7)”; and `CC=CC(=O)OC(C)C1CCCCC1` (stereo not shown) [Material 475], with “K (Log of liquid dish neat product liquid-air partition coefficient greater than or equal to 7)”.
As to `CC(C=O)Cc1ccc(C(C)C)cc1` (stereo not shown) [Material 478], the “Log … (Comment Code K/L)” value is recorded as “K (Log of liquid dish neat product liquid-air partition coefficient greater than or equal to 7)”.
The same measure, in the same setting: then `O=C1CCCCCCCCCCCCCC1` [Material 480], with “K (Log of liquid dish neat product liquid-air partition coefficient greater than or equal to 7)”.
As to `CCCC(=O)OC1CC2CC1C1CC=CC21` (stereo not shown) [Material 484], the “Comment Code: Log of liquid dish neat product liquid-air partition coefficient” value (“Comment Code: Log” below) was “K (Log of liquid dish neat product liquid-air partition coefficient greater than or equal to 7)” and the “Log … (Comment Code K/L)” value is on record as “K (Log of liquid dish neat product liquid-air partition coefficient greater than or equal to 7)”.
As for `CC1(C)CCCC2=C1CC(C=O)CC2` (stereo not shown) [Material 486], the “Log … (Comment Code K/L)” value was “K (Log of liquid dish neat product liquid-air partition coefficient greater than or equal to 7)”.
Turning to `CC(C)C(=O)OC1CC2CC1C1C=CCC21` (stereo not shown) [Material 487], the “Comment Code: Log” value was “K (Log of liquid dish neat product liquid-air partition coefficient greater than or equal to 7)” and the “Log … (Comment Code K/L)” value was “K (Log of liquid dish neat product liquid-air partition coefficient greater than or equal to 7)”.
For the compound `C=CC1(C)Cc2occ(C)c2CC1C(=C)C` (stereo not shown) [Material 488], the “Comment Code: Log” value is “K (Log of liquid dish neat product liquid-air partition coefficient greater than or equal to 7)” and the “Log … (Comment Code K/L)” value is “K (Log of liquid dish neat product liquid-air partition coefficient greater than or equal to 7)”.
For the compound `CC(C)c1ccc(CO)cc1` [Material 491], the “Log … (Comment Code K/L)” value is “K (Log of liquid dish neat product liquid-air partition coefficient greater than or equal to 7)”.
Consider `COc1cc(C)ccc1O` [Material 492], for which the “Comment Code: Log” value is given as “K (Log of liquid dish neat product liquid-air partition coefficient greater than or equal to 7)”.
`c1ccc2occc2c1` [Material 493]: the “Log … (Comment Code K/L)” value is recorded as “K (Log of liquid dish neat product liquid-air partition coefficient greater than or equal to 7)”.
As to `CC(C)(O)CCC1CCCCC1` [Material 496], the “Comment Code: Log” value is on record as “K (Log of liquid dish neat product liquid-air partition coefficient greater than or equal to 7)”.
Regarding `c1ccc(CCCc2ccccn2)cc1` [Material 497], the “Log … (Comment Code K/L)” value is “K (Log of liquid dish neat product liquid-air partition coefficient greater than or equal to 7)”.
On the same count and under the same terms, then `CCCCCCCCCCCC#N` [Material 498], with “K (Log of liquid dish neat product liquid-air partition coefficient greater than or equal to 7)”.
On to `C=CC(C)(C#N)Cc1ccccc1` (stereo not shown) [Material 504], for which the “Comment Code: Log” value was “K (Log of liquid dish neat product liquid-air partition coefficient greater than or equal to 7)”.
Consider `CC(=CC#N)CCc1ccccc1` [Material 505], for which the “Log … (Comment Code K/L)” value is “K (Log of liquid dish neat product liquid-air partition coefficient greater than or equal to 7)”.
Turning to `CC(C)=CCCC(C)=CC1OCC(C)O1` (stereo not shown) [Material 519], the “Log … (Comment Code K/L)” value is listed as “K (Log of liquid dish neat product liquid-air partition coefficient greater than or equal to 7)”.
The same measure, in the same setting: then `COC(C=C(C)CCC=C(C)C)OC` [Material 520], with “K (Log of liquid dish neat product liquid-air partition coefficient greater than or equal to 7)”; and `CCOC(C=C(C)CCC=C(C)C)OCC` [Material 521], with “K (Log of liquid dish neat product liquid-air partition coefficient greater than or equal to 7)”.
On to `C/C=C\c1ccc(O)c(OC)c1` [Material 528], for which the “Comment Code: Log” value was “K (Log of liquid dish neat product liquid-air partition coefficient greater than or equal to 7)”.
With `C=C(C)C1CC=C(C)C(O)C1` (stereo not shown) [Material 531], the “Log … (Comment Code K/L)” value is “K (Log of liquid dish neat product liquid-air partition coefficient greater than or equal to 7)”.
`CC/C=C\CCOC(=O)C/C=C\CC` [Material 534]: the “Log … (Comment Code K/L)” value is listed as “K (Log of liquid dish neat product liquid-air partition coefficient greater than or equal to 7)”.
For `C/C=C(\C)C(=O)OCC/C=C\CC` [Material 536], the “Comment Code: Log” value is “K (Log of liquid dish neat product liquid-air partition coefficient greater than or equal to 7)”.
For the compound `CC/C=C\CCOC(=O)c1ccccc1` [Material 541], the “Log … (Comment Code K/L)” value is “K (Log of liquid dish neat product liquid-air partition coefficient greater than or equal to 7)”.
The same measure, in the same setting: with `CC/C=C\C/C=C\CCO` [Material 546] the entry was “K (Log of liquid dish neat product liquid-air partition coefficient greater than or equal to 7)”.
Same read-out and setting: then `CCC(=O)OCC=Cc1ccccc1` [Material 548], with “K (Log of liquid dish neat product liquid-air partition coefficient greater than or equal to 7)”.
For the compound `N#CC=Cc1ccccc1` [Material 549], the “Comment Code: Log” value was “K (Log of liquid dish neat product liquid-air partition coefficient greater than or equal to 7)”.
For `CC(C)C(=O)OCC=Cc1ccccc1` [Material 550], the “Log … (Comment Code K/L)” value is recorded as “K (Log of liquid dish neat product liquid-air partition coefficient greater than or equal to 7)”.
Still for that read-out and setting: with `O=COCC=Cc1ccccc1` [Material 551] the entry was “K (Log of liquid dish neat product liquid-air partition coefficient greater than or equal to 7)”.
Turning to `CC(=O)OCC=Cc1ccccc1` [Material 553], the “Log … (Comment Code K/L)” value was “K (Log of liquid dish neat product liquid-air partition coefficient greater than or equal to 7)”.
As for `O=C/C=C/c1ccccc1` [Material 554], the “Comment Code: Log” value is “K (Log of liquid dish neat product liquid-air partition coefficient greater than or equal to 7)”.
With `OCC=Cc1ccccc1` [Material 555], the “Log … (Comment Code K/L)” value is listed as “K (Log of liquid dish neat product liquid-air partition coefficient greater than or equal to 7)”.
Regarding `N#C/C=C/c1ccccc1` [Material 556], the “Comment Code: Log” value is “K (Log of liquid dish neat product liquid-air partition coefficient greater than or equal to 7)”.
Regarding `Cc1cc(O)cc(C)c1Cl` [Material 557], the “Comment Code: Log” value is listed as “K (Log of liquid dish neat product liquid-air partition coefficient greater than or equal to 7)”.
Turning to `C=CCCC(=O)/C=C/C1C(C)=CCCC1(C)C` (stereo not shown) [Material 559], the “Log … (Comment Code K/L)” value is on record as “K (Log of liquid dish neat product liquid-air partition coefficient greater than or equal to 7)”.
Turning to `CC1=C(CCC(C)C=O)C(C)(C)CCC1` (stereo not shown) [Material 560], the “Log … (Comment Code K/L)” value is on record as “K (Log of liquid dish neat product liquid-air partition coefficient greater than or equal to 7)”.
For the compound `CC(=O)c1cc(C(C)(C)C)cc2c1CCC2(C)C` [Material 563], the “Log of liquid dish neat product liquid-air partition coefficient (Comment Code)” value (“Log … (Comment Code)” for short) is given as “K (Log of liquid dish neat product liquid-air partition coefficient greater than or equal to 7)”.
For the compound `COC1(C)CCC23CC1C(C)(C)C2CCC3C` (stereo not shown) [Material 565], the “Comment Code: Log” value was “K (Log of liquid dish neat product liquid-air partition coefficient greater than or equal to 7)” and the “Log … (Comment Code)” value is on record as “K (Log of liquid dish neat product liquid-air partition coefficient greater than or equal to 7)”.
Regarding `CC1CCC2C(C)(C)C3CC12CCC3(C)OC=O` (stereo not shown) [Material 566], the “Comment Code: Log” value was “K (Log of liquid dish neat product liquid-air partition coefficient greater than or equal to 7)” and the “Log … (Comment Code)” value is given as “K (Log of liquid dish neat product liquid-air partition coefficient greater than or equal to 7)”.
Consider `CC(=O)O[C@]1(C)CC[C@@]23C[C@@H]1C(C)(C)[C@@H]2CC[C@H]3C` [Material 567], for which the “Comment Code: Log” value is “K (Log of liquid dish neat product liquid-air partition coefficient greater than or equal to 7)” and the “Log … (Comment Code)” value was “K (Log of liquid dish neat product liquid-air partition coefficient greater than or equal to 7)”.
Take `CC1=CCCC2(C)OC2CCC(C)=CCC1` (stereo not shown) [Material 568]: the “Log … (Comment Code)” value was “K (Log of liquid dish neat product liquid-air partition coefficient greater than or equal to 7)”.
With `C[C@@H]1CC[C@H]2C(C)(C)[C@H]3C[C@@]12CC[C@@]3(C)O` [Material 569], the “Comment Code: Log” value is reported as “K (Log of liquid dish neat product liquid-air partition coefficient greater than or equal to 7)” and the “Log … (Comment Code)” value is “K (Log of liquid dish neat product liquid-air partition coefficient greater than or equal to 7)”.
